Source: patent US20240043395A1, “COMPOUNDS AND COMPOSITIONS AS MODULATORS OF TLR SIGNALING” (Neuropore Therapies, Inc., priority 2020, published 2024)
Where “and” joins values, the source holds several entries; their conditions need not be identical. Identical values can stand only once.

Key:
Type in all cases: cell-based
[1] = molecular target: T1, human TLR2 (Homo sapiens (Human), UniProt O60603); assay: HEK-Blue hTLR2 antagonism assay (SEAP reporter), agonist Pam2CSK4; details: HEK-Blue hTLR2 cells; Pam2CSK4 (TLR2/6 agonist) at approx. 3×EC50; 18 h; 8-point dilutions
T1 sequence (O60603 21-784): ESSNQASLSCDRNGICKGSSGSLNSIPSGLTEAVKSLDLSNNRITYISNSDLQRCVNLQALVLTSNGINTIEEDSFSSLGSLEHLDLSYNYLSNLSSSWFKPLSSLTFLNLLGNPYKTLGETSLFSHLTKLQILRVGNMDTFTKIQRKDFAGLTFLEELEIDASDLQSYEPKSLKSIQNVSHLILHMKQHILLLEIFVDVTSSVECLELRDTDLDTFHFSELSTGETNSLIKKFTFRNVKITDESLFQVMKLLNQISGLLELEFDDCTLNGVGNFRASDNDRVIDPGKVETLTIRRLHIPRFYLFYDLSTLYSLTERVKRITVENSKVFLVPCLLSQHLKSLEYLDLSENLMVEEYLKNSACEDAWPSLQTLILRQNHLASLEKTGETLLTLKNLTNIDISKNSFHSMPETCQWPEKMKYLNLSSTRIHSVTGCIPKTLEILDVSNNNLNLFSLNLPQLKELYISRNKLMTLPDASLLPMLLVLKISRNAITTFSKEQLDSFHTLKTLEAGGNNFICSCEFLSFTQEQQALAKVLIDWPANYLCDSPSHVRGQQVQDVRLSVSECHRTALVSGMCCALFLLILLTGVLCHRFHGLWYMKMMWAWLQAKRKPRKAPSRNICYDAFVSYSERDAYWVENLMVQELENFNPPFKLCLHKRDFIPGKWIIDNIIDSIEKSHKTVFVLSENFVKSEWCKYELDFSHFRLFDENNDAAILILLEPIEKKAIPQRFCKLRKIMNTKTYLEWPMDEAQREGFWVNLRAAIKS
Experimental: (§1) Synthetic diacylated lipoprotein (Pam2CSK4, TLR2/6 agonist) and synthetic triacylated lipoprotein (Pam3CSK4, TLR1/2 agonist) were obtained from InvivoGen and were dissolved in endotoxin-free water to a concentration 1 mg/mL, vortexed until complete solubilization, and stored in aliquots at −20° C. Prior to addition to cells, an aliquot of the dissolved ligand was vortexed shortly and then was diluted in medium to 25 ng/mL Pam2CSK4 or 1000 ng/mL Pam3CSK4.
(§2) Test compounds were solubilized fresh to 10-20 mM stocks in DMSO and sonicated for 5-10 minutes in a water bath sonicator. Serial dilutions were prepared in DMSO, and then diluted in medium. The final concentration of DMSO used in the assay was 1%.
(§3) HEK-Blue hTLR2 reporter cells (InvivoGen) are HEK-293 cells stably expressing both the human TLR2 gene and a secreted embryonic alkaline phosphatase (SEAP) reporter construct downstream of NFκB promotor sites. HEK-Blue hTLR2 reporters were cultured according to manufacturer's protocol using Dulbecco's Modified Eagle Medium (DMEM; Gibco) containing 1× GlutaMax (Gibco), 10% heat-inactivated Fetal Bovine Serum (Gibco), Pen-Strep (50 U/mL penicillin, 50 μg/mL streptomycin, Gibco), 100 μg/mL Normocin (InvivoGen), and the selective antibiotic, lx HEK-Blue Selection (InvivoGen). Quanti-Blue reagent (InvivoGen) for detection and quantification of secreted alkaline phosphatase was dissolved in 100 mL of endotoxin-free water, warmed to 37° C. for 30 minutes and then filtered using a 0.2 μm membrane.
(§4) On day 1, 50 μL of each test compound dilution in duplicates or a vehicle control was added to each well of a 96-well plate followed by addition of 150 μL of HEK-Blue hTLR2 cell suspension (1×10^5 cells/well) and incubated at 37° C./5% CO2 for 2 h. Next, 50 μL of an approximate 3×EC50 concentration of each agonist (Pam2CSK4 or Pam3CSK4) was added to the wells containing test compounds or the vehicle control. The plates were then incubated at 37° C./5% CO2 for 18 h. For each assay run, non-treated HEK-Blue hTLR2 cells were treated with serial dilutions of agonists to determine EC50 values for the respective run.
(§5) On day 2, secreted alkaline phosphatase (SEAP) activity was detected in cell culture supernatants. In brief, 20 μL was collected from each well and transferred to a 96-well plate. Next, 200 μL of Quanti-Blue detection reagent was added to each well. Plates were incubated at room temperature for 15 min and SEAP activity was assessed by spectrophotometer OD reading at 655 nm. […] IC50 values were calculated based on 8-point dilutions for each compound.

[2] = molecular target: T1, human TLR2; assay: HEK-Blue hTLR2 antagonism assay (SEAP reporter), agonist Pam3CSK4; details: HEK-Blue hTLR2 cells; Pam3CSK4 (TLR1/2 agonist) at approx. 3×EC50; 18 h; 8-point dilutions
Experimental: as §1, §2, §3, §4, §5

[3] = molecular target: human TLR9 (Homo sapiens (Human), UniProt Q9NR96); assay: HEK-Blue hTLR9 antagonism assay (SEAP reporter), agonist ODN 2006; details: HEK-Blue hTLR9 cells; ODN 2006 (TLR9 agonist) at approx. 3×EC50; 18 h; exact values 8-point, approximate (~ or <) 4-point dilutions; read-out: IC50 (μM) with ODN2006
Sequence of human TLR9 (Q9NR96 26-1032): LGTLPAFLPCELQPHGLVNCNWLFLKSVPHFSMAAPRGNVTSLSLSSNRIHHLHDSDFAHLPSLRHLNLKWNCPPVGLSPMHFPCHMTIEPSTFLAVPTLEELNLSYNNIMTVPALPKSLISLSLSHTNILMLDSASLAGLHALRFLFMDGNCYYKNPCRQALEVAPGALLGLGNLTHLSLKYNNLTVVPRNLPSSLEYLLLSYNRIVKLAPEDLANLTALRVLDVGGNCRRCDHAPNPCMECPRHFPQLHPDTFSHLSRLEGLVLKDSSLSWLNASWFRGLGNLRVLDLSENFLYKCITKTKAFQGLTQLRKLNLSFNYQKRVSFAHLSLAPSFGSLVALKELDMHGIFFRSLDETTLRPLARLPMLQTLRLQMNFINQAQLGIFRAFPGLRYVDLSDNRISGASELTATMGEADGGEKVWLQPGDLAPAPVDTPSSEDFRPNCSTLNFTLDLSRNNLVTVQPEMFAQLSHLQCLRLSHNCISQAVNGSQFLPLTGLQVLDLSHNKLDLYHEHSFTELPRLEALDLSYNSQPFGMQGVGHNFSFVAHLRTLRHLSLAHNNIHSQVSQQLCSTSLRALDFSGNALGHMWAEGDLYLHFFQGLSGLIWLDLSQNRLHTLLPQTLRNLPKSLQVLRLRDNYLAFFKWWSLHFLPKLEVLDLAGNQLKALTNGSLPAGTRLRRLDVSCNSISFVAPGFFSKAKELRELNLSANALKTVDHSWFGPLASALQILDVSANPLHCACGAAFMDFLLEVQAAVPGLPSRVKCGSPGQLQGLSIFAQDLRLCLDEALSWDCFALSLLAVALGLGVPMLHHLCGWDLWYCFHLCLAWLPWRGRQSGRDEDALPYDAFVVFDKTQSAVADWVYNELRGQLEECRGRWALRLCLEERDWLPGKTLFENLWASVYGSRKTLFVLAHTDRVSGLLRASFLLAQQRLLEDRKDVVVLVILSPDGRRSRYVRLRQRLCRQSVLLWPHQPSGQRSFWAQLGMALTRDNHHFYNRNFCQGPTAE
Experimental: Synthetic ODNs (ODN 2006 (ODN 7909), class B CpG oligonucleotide, TLR9 agonist) was obtained from InvivoGen and was dissolved in endotoxin-free water to a concentration 500 μM, vortexed until complete solubilization, and stored in aliquots at −20° C. Prior to addition to cells, an aliquot of the dissolved ligand was vortexed shortly and then was diluted in medium to 50 μM.
as §2
as §3, with “hTLR9” for “hTLR2”, “TLR9” for “TLR2”, “hTLR9 cells” for “hTLR2 reporters”, “antibiotics, 10 μg/mL Blasticidin (InvivoGen), and 100 μg/mL Zeocin” for “antibiotic, lx HEK-Blue Selection”
as §4, with “hTLR9” for “hTLR2”, “TLR9 agonist, ODN 2006,” for “each agonist (Pam2CSK4 or Pam3CSK4)”, “vehicle-treated” for “non-treated”, “agonist” for “agonists”
On day 2, secreted alkaline phosphatase (SEAP) activity was detected in cell culture supernatants. In brief, 30 μL was collected from each well and transferred to a 96-well plate. Next, 200 μL of Quanti-Blue detection reagent was added to each well. Plates were incubated at 37° C. for 60 min. and SEAP activity was assessed by spectrophotometer OD reading at 655 nm. […] Exact IC50 values were calculated based on 8-point dilutions for each compound. Approximate IC50 values (˜ or <) were calculated based on 4-point dilutions for each compound.

| SMILES | IC50 [1] | IC50 [2] | IC50 [3] |
| --- | --- | --- | --- |
| O=Cc1cc(C(=O)Nc2ncc(-c3ccc(F)cc3)s2)cc(F)c1O [Compound 11, 3-fluoro-N-(5-(4-fluorophenyl)thiazol-2-yl)-5-formyl-4-hydroxybenzamide] | 1 µM | 0.7 µM | 0.4 µM |
| O=Cc1cc(C(=O)Nc2ncc(-c3cccc(N4CCCC4)c3)s2)cc(F)c1O [Compound 12, 3-fluoro-5-formyl-4-hydroxy-N-(5-(3-(pyrrolidin-1-yl)phenyl)thiazol-2-yl)benzamide] | 0.6 µM | 0.6 µM | 0.2 µM |
| O=Cc1cc(C(=O)Nc2cnc(N3CCCC3)c(C(F)(F)F)c2)cc(F)c1O [Compound 19, 3-fluoro-5-formyl-4-hydroxy-N-(6-(pyrrolidin-1-yl)-5-(trifluoromethyl)pyridin-3-yl)benzamide] | 0.4 µM | 0.3 µM | 0.6 µM |
| O=Cc1cc(-c2cnn(-c3ccc(C(F)(F)F)cc3)c2)cc(F)c1O [Compound 127, 3-fluoro-2-hydroxy-5-(1-(4-(trifluoromethyl)phenyl)-1H-pyrazol-4-yl)benzaldehyde] | 0.5 µM | 0.5 µM | 0.1 µM |
| CN1CCN(/N=C/c2cc(C(=O)N3CCC(c4ccc(N5CCCC5)cc4)CC3)cc(F)c2O)CC1 [Compound 163, (3-fluoro-4-hydroxy-5-(((4-methylpiperazin-1-yl)imino)methyl)phenyl)(4-(4-(pyrrolidin-1-yl)phenyl)piperidin-1-yl)methanone] | 0.6 µM | 0.4 µM | 0.26 µM |
| O=C(c1cc(F)c(O)c(/C=N/N2CCOCC2)c1)N1CCC(c2ccc(N3CCCC3)cc2)CC1 [Compound 164, (3-fluoro-4-hydroxy-5-((morpholinoimino)methyl)phenyl)(4-(4-(pyrrolidin-1-yl)phenyl)piperidin-1-yl)methanone] | 1.1 µM | 0.5 µM | 0.26 µM |
| CN1CCN(/N=C/c2cc(-c3nc(-c4ccc(N5CCCC5)nc4)ns3)cc(F)c2O)CC1 [Compound 165, 2-fluoro-6-(((4-methylpiperazin-1-yl)imino)methyl)-4-(3-(6-(pyrrolidin-1-yl)pyridin-3-yl)-1,2,4-thiadiazol-5-yl)phenol] | 1.1 µM | 0.9 µM | 0.41 µM |
| Oc1c(F)cc(-c2nc(-c3ccc(N4CCCC4)cc3)ns2)cc1/C=N/N1CCOCC1 [Compound 166, 2-fluoro-6-((morpholinoimino)methyl)-4-(3-(4-(pyrrolidin-1-yl)phenyl)-1,2,4-thiadiazol-5-yl)phenol] | 2.8 µM | 1 µM | 0.14 µM and 0.18 µM |
| O=Cc1cc(C(=O)Nc2nc(-c3ccc(N4CCCC4)cc3)ns2)cc(F)c1O [Compound 167, 3-fluoro-5-formyl-4-hydroxy-N-(3-(4-(pyrrolidin-1-yl)phenyl)-1,2,4-thiadiazol-5-yl)benzamide] | 1.5 µM | 0.6 µM | 0.5 µM |
